Test results published in patent US20240000950A1, “THERAPEUTIC CURE-PRO COMPOUNDS FOR TARGETED DEGRADATION OF BET DOMAIN PROTEINS, AND METHODS OF MAKING AND USING THEM” (CORNELL UNIVERSITY, priority 2020, published 2024).
“Also recorded” adds a separate entry of the source.

Columns and labels:
Format in all cases: cell-based
[1] = biological target: T1, BRD4 (Homo sapiens, UniProt O60885); test: CURE-PRO-mediated BRD4 degradation in HeLa cells, Western blot; parameters: endogenous in cells; host or cells: HeLa; conditions: 24 h
Protocol: (§1) All cell lines were purchased from ATCC or DSMZ and grown at 37° C. with 5% C02. Human HeLa cells were cultured in complete growth medium (Dulbecco's modified Eagle's medium (DMEM) supplemented with 10% FBS); MCF7 cells were cultured in complete growth medium (Dulbecco's modified Eagle's medium (DMEM) supplemented with 10% FBS and 0.01 mg/ml human recombinant insulin (Sigma Aldrich); Namalwa and MOLM-13 cells were cultured in complete growth medium (RPMI 1640 medium supplemented with 10% FBS); MV-4-11 were cultured in complete growth medium (Iscove's Modified Dulbecco's medium, supplemented with 10% FBS); HCT116 cells were cultured in complete growth medium (McCoy's 5a Medium supplemented with 10% FBS). For cellular degradation of BRD4 studies, cells were seeded in a 12-well plate at 70-80% confluency, allowed to attach overnight, and incubated with the indicated compounds for the indicated time. When indicated, a 15-minute pretreatment with 10 μM pomalidomide, 10 μM VHL298, 10 μM Nutlin3a, 1 μM MG-132 or 1 μM Carfilzomib was performed before the addition of CURE-PROs. For washout studies, after CURE-PRO treatment, media was aspirated and incubated with complete medium for the indicated time before lysis.
Anti-BRD4 (13440, 1:1,000 dilution for Western Blot and 1:25 dilution for ProteinSimple); Anti-BRD2 (5848 1:1,000 dilution for Western Blot and 1:25 dilution for ProteinSimple); β-Actin (3700, 1:2,000 dilution for Western Blot), β-Actin (4970, 1:50 dilution for ProteinSimple) anti-mouse IgG-HRP, and anti-rabbit IgG-HRP antibodies were purchased Cell Signaling Technology. Anti-GAPDH (600-401-A33, 1:100 dilution for ProteinSimple) was purchased from Rockland Immunochemicals, Inc. Anti-BRD3 (sc-81202, 1:200 dilution for Western Blot) was purchased from Santa Cruz Biotechnology.
(§2) HeLa, MCF7, or HCT116 cells (2.5-3×10^6) were treated for 24 hours with the indicated compounds solubilized in DMSO. The cells were washed in ice-cold PBS and were then lysed in RIPA lysis buffer (150 mM NaCl, 5 mM EDTA, 1% NP-40, 0.5% sodium deoxycholate, 0.1% SDS, 50 mM Tris, pH 8.0) with Roche protease inhibitor complete cocktail and phosphatase inhibitors (10 mM sodium fluoride, 10 mM sodium pyrophosphate, 1 mM sodium orthovanadate and 20 mM β-glycerophosphate). The total protein concentrations were determined by Bradford Protein Assay and 10-20 μg of protein was loaded onto 4-15% Tris-Glycine gradient gels (Biorad). After standard gel electrophoresis, the separated proteins were transferred to PVDF membrane by wet transfer. The immunoblots were then blocked for 1 hour in 5% skim milk in TBST or 5% BSA in TBST, according to manufacturer's instructions, before an overnight incubation at 4° C. with indicated antibodies and membranes. Membranes were then incubated with the appropriate horseradish peroxidase-conjugated secondary antibodies (1:5,000 dilution) for 1 h at room temperature and the bands were visualized using the Clarity Max Western ECL Substrate (Biorad) and the ChemiDoc Imaging System (Biorad). Signal was detected with ECL Western Blotting Substrate (Pierce) and X-ray film processed with a Konica SRX-101 X-ray film processor or captured by Bio-Rad's Chemidoc Imaging system.
HeLa cells (2.5×10^6) were treated for 24 hours with the sample compounds solubilized in DMSO. Compounds were added at 1-10 μM each. Standardized protein samples were electrophoresed and imaged as described in the immunoblotting description above. FIGS. 6-18 depicts the CURE-PRO-mediated BRD4 degradation for BRD monomers (JQ1 derivatives comprising of catechol linkers), and CRBN ligands, 8048 and 8049 (pomalidomide derivatives comprising boronic acid linkers) combined in a 1:1 ratio.
HeLa cells (2.5×10^6) were treated for 24 hours with the compounds solubilized in DMSO. The compounds were added at 10 μM each. Standardized protein samples were electrophoresed and imaged as described in the immunoblotting section above. […]

[2] = biological target: T1, BRD4; test: Summary of E3 ligase directed degradation of BRD4, estimated from Western Blot or WES (Tables 1-6); parameters: endogenous in cells; host or cells: HeLa, MCF7 or HCT116; conditions: for Degradation of BRD4, combination with CRBN ligand [drawing 422] / Degradation of BRD4, combination with CRBN ligand [drawing 397] / Degradation of BRD4, combination with CRBN ligand [drawing 421]: Table 1; for Degradation of BRD4, combination with CRBN ligand [drawing 422]: CRBN ligand drawn as drawing 422 (by the text apparently 8066); for Degradation of BRD4, combination with CRBN ligand [drawing 397]: aromatic 1,2-diol- or hindered cis-1,2-diol-containing CRBN ligand drawn as drawing 397 (by the text apparently 8046); for Degradation of BRD4, combination with MDM2 ligand [drawing 431]: Table 2, aromatic 1,2-diol-containing MDM2 ligand drawn as drawing 431 (by the text apparently 8314); for Degradation of BRD4, combination with CRBN ligand [drawing 421]: CRBN ligand drawn as drawing 421 (by the text apparently 8047)
Protocol: as §2
WES Simple analysis was performed on WES system (ProteinSimple-Biotechne) according to the manufacturer's instructions. Total protein concentrations of cell lysates were determined by the Pierce BCA kit (Thermo Fisher). 3 μL of 0.3 μg/uL of the protein lysate was loaded onto a 12- to 230-kDa WES assay plate (ProteinSimple) where 300 nL sample was withdrawn through a capillary, subjected to electrophoretic separation of proteins by size, and followed by the simultaneous, HRP-based detection of proteins using the Anti-Rabbit Detection Module (Proteinsimple: #DM-001). The electropherograms were checked then the automatic peak detection was manually corrected if it was required.
A black check mark indicates efficacy of 30% to 70% or higher protein degradation.

[3] = system: MV-4-11 cells; test: CellTiter-Glo cell viability, MV-4-11 cells
Protocol: as §1
CellTiter-Glo® 2.0 Cell Viability Assay (Promega) was carried out following the manufacturer's recommendations. Cells were seeded at a density of 1000 cells/well in a white 96 well plates (Corning, #3917) in a total volume of 100 μl with respective monomers, combinations of BRD ligands together with E3 ligase ligands or vehicle control treatment. After a 72 h incubation, 100 ul of the CellTiter-Glo® substrate was added per well and luminescence was read on a Spectramax M5 (Molecular Devices). Dose-response curves were generated using Graphpad Prism software.
MV-4-11 cells (5×104) were treated for 24 hours with the sample compounds solubilized in DMSO. The compounds were added at 1 nM-100 μM each. Cellular viability was determined using the CellTiter-Glo® Luminescent Cell Viability Assay (Promega) described above. FIGS. 19-22 depict the CURE-PRO-mediated loss of cellular viability for BRD monomers (JQ1 derivatives comprising of catechol linkers), and CRBN ligand, 8049 (pomalidomide derivatives comprising boronic acid linkers) combined in a 1:1 ratio.
MV-4-11 cells (1×104) were treated for 72 hours with the compounds solubilized in DMSO. Compounds were added at 10 nM-100 μM each. Cellular viability was determined using the CellTiter-Glo® Luminescent Cell Viability Assay (Promega) described above. FIGS. 47-54 depict the CURE-PRO-mediated loss of cellular viability for BRD monomers (JQ1 derivatives comprising of boronic acid linkers), and CRBN ligands, 8046, 8047, and 8066 (pomalidomide derivatives comprising diol linkers) combined in a 1:1 ratio.

[4] = 72 h, 10 nM-100 μM, cotreated 1:1 with each of CRBN ligands 8066, 8046 and 8047, compared to monomers alone

Compound: COc1ccc2c(c1)C(c1ccc(Cl)cc1)=N[C@@H](CC(=O)NCCCCCNC(=O)c1cccc(B(O)O)c1)c1nnc(C)n1-2 [BRD-E08]
- BRD4 degradation ([1]; BRD ligand (monomer) alone): no change in expression is observed
- BRD4 degradation ([1]; co-treated 1:1 with CRBN ligand 8046, 10 μM each unless the value states a concentration, listed as BRD-E8): Degradation is observed at 100 nM and 1 μM
- Degradation of BRD4, combination with CRBN ligand [drawing 422] [2]: ✓ (A black check mark indicates efficacy of 30% to 70% or higher protein degradation)
- Degradation of BRD4, combination with CRBN ligand [drawing 397] [2]: ✓ (A black check mark indicates efficacy of 30% to 70% or higher protein degradation)
- Degradation of BRD4, combination with MDM2 ligand [drawing 431] [2]: ✓ (A black check mark indicates efficacy of 30% to 70% or higher protein degradation)

Compound: CCNC(=O)C[C@@H]1N=C(c2ccc(Cl)cc2)c2cc(OCCNC(=O)c3cccc(B(O)O)c3)ccc2-n2c(C)nnc21 [BRD-E21, (3-((2-(((4S)-6-(4-chlorophenyl)-4-(2-(ethylamino)-2-oxoethyl)-1-methyl-4H-benzo[f][1,2,4]triazolo[4,3-a][1,4]diazepin-8-yl)oxy)ethyl)carbamoyl)phenyl)boronic acid]
- BRD4 degradation ([1]; BRD ligand (monomer) alone): no change in expression is observed
- Degradation of BRD4, combination with CRBN ligand [drawing 421] [2]: ✓ (A black check mark indicates efficacy of 30% to 70% or higher protein degradation)
- Degradation of BRD4, combination with MDM2 ligand [drawing 431] [2]: ✓ (A black check mark indicates efficacy of 30% to 70% or higher protein degradation)

Compound: COc1ccc2c(c1)C(c1ccc(Cl)cc1)=N[C@@H](CC(=O)NCCNC(=O)/C=C/c1cccc(B(O)O)c1)c1nnc(C)n1-2 [BRD-E30, (3-((E)-3-((2-(2-((4S)-6-(4-chlorophenyl)-8-methoxy-1-methyl-4H-benzo[f][1,2,4]triazolo[4,3-a][1,4]diazepin-4-yl)acetamido)ethyl)amino)-3-oxoprop-1-en-1-yl)phenyl)boronic acid]
- BRD4 degradation ([1]; BRD ligand (monomer) alone): no change in expression is observed
- Degradation of BRD4, combination with CRBN ligand [drawing 421] [2]: ✓ (A black check mark indicates efficacy of 30% to 70% or higher protein degradation)
- Degradation of BRD4, combination with CRBN ligand [drawing 422] [2]: ✓ (A black check mark indicates efficacy of 30% to 70% or higher protein degradation)

Compound: CCNC(=O)C[C@@H]1N=C(c2ccc(Cl)cc2)c2cc(Sc3ccc(B(O)O)cc3)ccc2-n2c(C)nnc21 [BRD-E75, (4-(((4S)-6-(4-chlorophenyl)-4-(2-(ethylamino)-2-oxoethyl)-1-methyl-4H-benzo[f][1,2,4]triazolo[4,3-a][1,4]diazepin-8-yl)thio)phenyl)boronic acid]
- Degradation of BRD4, combination with MDM2 ligand [drawing 431] [2]: ✓ (A black check mark indicates efficacy of 30% to 70% or higher protein degradation)
- toxicity / loss of cellular viability (CellTiter-Glo) [3, 4]: reduced viability; also recorded: increased toxicity

Compound: CCNC(=O)C[C@@H]1N=C(c2ccc(Cl)cc2)c2cc(Sc3cccc(B(O)O)c3)ccc2-n2c(C)nnc21 [BRD-E76]
- Degradation of BRD4, combination with CRBN ligand [drawing 397] [2]: ✓ (A black check mark indicates efficacy of 30% to 70% or higher protein degradation)
- toxicity / loss of cellular viability (CellTiter-Glo) [3, 4]: reduced viability; also recorded: increased toxicity

Compound: CCNC(=O)C[C@@H]1N=C(c2ccc(Cl)cc2)c2cc(OCCCCCCCNC(=O)c3ccc(B(O)O)cc3)ccc2-n2c(C)nnc21 [BRD-E78]
- Degradation of BRD4, combination with VHL ligand [drawing 442] ([2]; Table 3, aromatic 1,2-diol-containing VHL ligand drawn as drawing 442 (by the text apparently 8305)): ✓ (A black check mark indicates efficacy of 30% to 70% or higher protein degradation)
- toxicity / loss of cellular viability (CellTiter-Glo) [3, 4]: reduced viability; also recorded: increased toxicity

Compound: COc1ccc2c(c1)C(c1ccc(Cl)cc1)=N[C@@H](CC(=O)NCCc1ccc(O)c(O)c1)c1nnc(C)n1-2 [BRD-N10, (S)-2-(6-(4-chlorophenyl)-8-methoxy-1-methyl-4H-benzo[f][1,2,4]triazolo[4,3-a][1,4]diazepin-4-yl)-N-(3,4-dihydroxyphenethyl)acetamide]
- Degradation of BRD4, combination with CRBN ligand [drawing 457] ([2]; Table 4, aryl-boronic acid-containing CRBN ligand drawn as drawing 457 (by the text apparently 8048)): ✓ (A black check mark indicates efficacy of 30% to 70% or higher protein degradation)
- Degradation of BRD4, combination with CRBN ligand [drawing 458] ([2]; Table 4, aryl-boronic acid-containing CRBN ligand drawn as drawing 458 (by the text apparently 8049)): ✓ (A black check mark indicates efficacy of 30% to 70% or higher protein degradation)
- Degradation of BRD4, combination with MDM2 ligand [drawing 463] ([2]; Table 5, aryl-boronic acid-containing MDM2 ligand drawn as drawing 463 (apparently 8310)): ✓ (A black check mark indicates efficacy of 30% to 70% or higher protein degradation)
- toxicity / loss of cellular viability (CellTiter-Glo) ([3]; 1 nM-100 μM, cotreated 1:1 with CRBN ligand 8049): a concentration-dependent loss in cellular viability was observed; also recorded: increased toxicity
